The results in this text go back to patent US20100183530A1, “Cosmetic compositions comprising 4-carboxy-2-pyrrolidinone esters and triazine lipophilic UV-screening agents” (L'OREAL, priority 2008, published 2010).

The nature of this data set: Solubility of lipophilic triazine screening agents in oils (prior art solvents and solvents of the invention). Type of data set: physicochemical. The conditions noted are these: weight/weight, solution left at laboratory temperature for 1 month, no crystal or oily deposit.
Setting [1] is: oil: Caprylic/capric acid triglycerides.
Setting [2] is: oil: Compound (m) of the invention.
[3] abbreviates: oil: Isopropyl N-lauroylsarcosinate.

Take “2,4-bis(isobutyl 4′-aminobenzalmalonate)-6-[(3-{1,3,3,3-tetramethyl-1-[(trimethylsilyl)oxy]disiloxanyl}propyl)amino]-1,3,5-triazine [Screening agent 2]”: the “solubility of the screening agent in the oil” value (shortened to “solubility”) is recorded as 8% (oil: C12-C15 alkyl benzoate), 6% under setting [1], 60% gel under setting [2] and 35% under setting [3].

Turning to `CC(C)(C)COC(=O)C(=Cc1ccc(Nc2nc(Nc3ccc(C=C(C(=O)OCC(C)(C)C)C(=O)OCC(C)(C)C)cc3)nc(Nc3ccc(C=C(C(=O)OCC(C)(C)C)C(=O)OCC(C)(C)C)cc3)n2)cc1)C(=O)OCC(C)(C)C` [Screening agent 1, Dineopentyl 2-[4-({4,6-bis[(4-{3-(neopentyloxy)-2-[(neopentyloxy)carbonyl]-3-oxoprop-1-enyl}phenyl)amino]-1,3,5-triazin-2-yl}amino)benzylidene]malonate], the “solubility” value reads like this: under setting [2], 60% gel; under setting [3], 40% gel.

With `CCCCOC(=O)c1ccc(Nc2nc(Nc3ccc(C=C(C(=O)OCC(C)(C)C)C(=O)OCC(C)(C)C)cc3)nc(Nc3ccc(C=C(C(=O)OCC(C)(C)C)C(=O)OCC(C)(C)C)cc3)n2)cc1` [Screening agent 3, Dineopentyl 2-[4-({4-{[4-(butoxycarbonyl)phenyl]amino}-6-[(4-{3-(neopentyloxy)-2-[(neopentyloxy)carbonyl]-3-oxoprop-1-enyl}phenyl)amino]-1,3,5-triazin-2-yl}amino)benzylidene]malonate], the “solubility” value by setting is: under setting [2], 60% gel; under setting [3], 40% gel.

Turning to `CC(C)(C)COC(=O)C(=Cc1ccc(Nc2nc(Nc3ccc(C=C(C(=O)OCC(C)(C)C)C(=O)OCC(C)(C)C)cc3)nc(Nc3ccc(C(=O)NC(C)(C)C)cc3)n2)cc1)C(=O)OCC(C)(C)C` [Screening agent 4, Dineopentyl 2-[4-({4-({4-[(tert-butylamino)carbonyl]phenyl}amino)-6-[(4-{3-(neopentyloxy)-2-[(neopentyloxy)carbonyl]-3-oxoprop-1-enyl}phenyl)amino]-1,3,5-triazin-2-yl}amino)benzylidene]malonate], the “solubility” value is 60% gel under setting [2] and 40% gel under setting [3].

Regarding `CC(C)(C)CC(C)(C)NC(=O)c1ccc(Nc2nc(NCCC[Si](C)(O[Si](C)(C)C)O[Si](C)(C)C)nc(Nc3ccc(C(=O)NC(C)(C)CC(C)(C)C)cc3)n2)cc1` [Screening agent 5, N-(1,1,3,3-tetramethylbutyl)-4-({4-[(4-{[(1,1,3,3-tetramethylbutyl)amino]carbonyl}phenyl)amino]-6-[(3-{1,3,3,3-tetramethyl-1-[(trimethylsilyl)oxy]disiloxanyl}propyl)amino]-1,3,5-triazin-2-yl}amino)benzamide], the “solubility” value reads like this: under setting [2], 60% gel; under setting [3], 40% gel.

As for `CCCCOC(=O)c1ccc(Nc2nc(NCCC[Si](C)(O[Si](C)(C)C)O[Si](C)(C)C)nc(Nc3ccc(C(=O)OCCCC)cc3)n2)cc1` [Screening agent 8, Butyl 4-({4-{[4-(butoxycarbonyl)phenyl]amino}-6-[(3-{1,3,3,3-tetramethyl-1-[(trimethylsilyl)oxy]disiloxanyl}propyl)amino]-1,3,5-triazin-2-yl}amino)benzoate], the “solubility” value reads like this: (oil: 2-Phenylethyl benzoate) 27%; (oil: C12-C15 alkyl benzoate) 28%; under setting [1], 31%; (oil: Compound (I) of the invention) 60% gel; (oil: Compound (ii) of the invention) 60% gel; (oil: Compound (j) of the invention) 60% gel. Further, the “solubility” value under setting [2] was determined as 60% gel and the “solubility” value under setting [3] amounted to 40% gel.

In the case of `CCCCC(CC)COc1ccc(-c2nc(-c3ccc(OC)cc3)nc(-c3ccc(OCC(CC)CCCC)cc3O)n2)c(O)c1` (centres unmarked) [Screening agent 10, 5-[(2-Ethylhexyl)oxy]-2-[4-{4-[(2-ethylhexyl)oxy]-2-hydroxyphenyl}-6-(4-methoxyphenyl)-1,3,5-triazin-2-yl]phenol], the “solubility” value came to 18% under setting [2], 20% (oil: Compound (v) of the invention) and 10% under setting [3].
